Literature values in patent US20150044305A1, “[…] NITRIC OXIDE FOR TREATING RESPIRATORY DISEASES” (Advanced Inhalation Therapies (AIT) Ltd., priority 2012, published 2015).

Assays:
Klebsiella sp.#1 = conditions: 200 ppm gNO, saline suspension; cited from earlier work
Acinetobacter sp. = conditions: 200 ppm gNO, saline suspension; cited from earlier work
[1] = system: influenza A/victoria/H3N2; conditions: 160 ppm exogenous gNO, virions or incubated cells, MDCK cell model; cited from earlier work

SMILES: [N]=O [gNO, nitric oxide]
- LD100 (Klebsiella sp.#1): 6 h
- Latent Period (Klebsiella sp.#1): 3 h
- −2.5 Log10 (hours) (Klebsiella sp.#1): 3.5 hours
- LD100 (Acinetobacter sp.): 6 h
- Latent Period (Acinetobacter sp.): 4 h
- −2.5 Log10 (hours) (Acinetobacter sp.): 5 hours
- viral replication and infectivity [1]: reduced not only viral replication but also their infectivity
